Source: publication PMC11606603, “The membrane domains of mammalian adenylyl cyclases are lipid receptors” (eLife, 2024)
Where “and” joins values, the source holds several entries; their conditions need not be identical. Identical values can stand only once. Entries after “also recorded” stand apart in the source; their conditions may differ.

Legend:
Assay type in all cases: biochemical
mAC5 = target: T1, mAC5 (Homo sapiens, UniProt O95622); experiment: AC assay, Gsα-stimulated mAC5 in membranes from transfected HEK293 cells
T1 construct: Human mAC genes were from GenScript and fitted with a C-terminal FLAG-tag; FLAG (C); made in house; host or cells: HEK293, permanently transfected; membrane preparation
In short: (§1)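 cAMP detected with a Cisbio kit, calibrated by a cAMP standard curve each run. Reaction: 1 mM ATP, 2 mM MgCl2, 3 mM creatine phosphate, 60 μg/ml creatine kinase, 50 mM MOPS pH 7.5. Enzyme source: membranes of stably transfected HEK293 (G418-selected) carrying FLAG-tagged human AC.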

mAC1 = target: T2, mAC1 (Homo sapiens, UniProt Q08828); experiment: AC assay, Gsα-stimulated mAC1 in membranes from transfected HEK293 cells; conditions: 20 µM; in words
T2 construct: Human mAC genes were from GenScript and fitted with a C-terminal FLAG-tag; FLAG (C); made in house; host or cells: HEK293, permanently transfected; membrane preparation
In short: as §1

mAC2 = target: T3, mAC2 (Homo sapiens, UniProt Q08462); experiment: AC assay, Gsα-stimulated mAC2 in membranes from transfected HEK293 cells; conditions: for mAC2 activity [%] (100% = 300nM Gsα stimulation): Figure 5 B
T3 construct: Human mAC genes were from GenScript and fitted with a C-terminal FLAG-tag; FLAG (C); made in house; host or cells: HEK293, permanently transfected; membrane preparation
In short: as §1

mAC6 = target: T4, mAC6 (Homo sapiens, UniProt O43306); experiment: AC assay, Gsα-stimulated mAC6 in membranes from transfected HEK293 cells
T4 construct: Human mAC genes were from GenScript and fitted with a C-terminal FLAG-tag; FLAG (C); made in house; host or cells: HEK293, permanently transfected; membrane preparation
In short: as §1

mAC3 = target: T5, mAC3 (Homo sapiens, UniProt O60266); experiment: AC assay, Gsα-stimulated mAC3 in membranes from transfected HEK293 cells; design: ATP/V (mAC3 + 20µM Oleic acid): unit not given here; conditions: for ATP/V (mAC3 + 20µM Oleic acid): Hanes-Woolf plot; for mAC3 activity + 20µM Oleic acid: Michaelis-Menten; for mAC3 activity [%] (100% = 300nM Gsα stimulation): individual experiments
T5 construct: Human mAC genes were from GenScript and fitted with a C-terminal FLAG-tag; FLAG (C); made in house; host or cells: HEK293, permanently transfected; membrane preparation
In short: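 EC50 and IC50 values come from cAMP production, read with a Cisbio cAMP kit and converted via a standard curve. Assay mix held 1 mM ATP, 2 mM MgCl2, 3 mM creatine phosphate and 60 μg/ml creatine kinase in 50 mM MOPS pH 7.5, using transfected HEK293 membranes.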

mAC8 = target: T6, mAC8 (Homo sapiens, UniProt P40145); experiment: AC assay, Gsα-stimulated mAC8 in membranes from transfected HEK293 cells
T6 construct: Human mAC genes were from GenScript and fitted with a C-terminal FLAG-tag; FLAG (C); made in house; host or cells: HEK293, permanently transfected; membrane preparation
In short: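 Adenylyl cyclase activity was measured in 100,000 × g membrane fractions prepared from HEK293 cells permanently transfected with C-terminally FLAG-tagged human AC isoforms. Assays contained 1 mM ATP and 2 mM MgCl2 with an ATP-regenerating system at pH 7.5.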

[1] = Figure 5 A, 20 µM oleic acid, 300 nM Gsα
[2] = enhancement of 300 nM Gsα-stimulated activity

T1 sequence (O95622 whole entry): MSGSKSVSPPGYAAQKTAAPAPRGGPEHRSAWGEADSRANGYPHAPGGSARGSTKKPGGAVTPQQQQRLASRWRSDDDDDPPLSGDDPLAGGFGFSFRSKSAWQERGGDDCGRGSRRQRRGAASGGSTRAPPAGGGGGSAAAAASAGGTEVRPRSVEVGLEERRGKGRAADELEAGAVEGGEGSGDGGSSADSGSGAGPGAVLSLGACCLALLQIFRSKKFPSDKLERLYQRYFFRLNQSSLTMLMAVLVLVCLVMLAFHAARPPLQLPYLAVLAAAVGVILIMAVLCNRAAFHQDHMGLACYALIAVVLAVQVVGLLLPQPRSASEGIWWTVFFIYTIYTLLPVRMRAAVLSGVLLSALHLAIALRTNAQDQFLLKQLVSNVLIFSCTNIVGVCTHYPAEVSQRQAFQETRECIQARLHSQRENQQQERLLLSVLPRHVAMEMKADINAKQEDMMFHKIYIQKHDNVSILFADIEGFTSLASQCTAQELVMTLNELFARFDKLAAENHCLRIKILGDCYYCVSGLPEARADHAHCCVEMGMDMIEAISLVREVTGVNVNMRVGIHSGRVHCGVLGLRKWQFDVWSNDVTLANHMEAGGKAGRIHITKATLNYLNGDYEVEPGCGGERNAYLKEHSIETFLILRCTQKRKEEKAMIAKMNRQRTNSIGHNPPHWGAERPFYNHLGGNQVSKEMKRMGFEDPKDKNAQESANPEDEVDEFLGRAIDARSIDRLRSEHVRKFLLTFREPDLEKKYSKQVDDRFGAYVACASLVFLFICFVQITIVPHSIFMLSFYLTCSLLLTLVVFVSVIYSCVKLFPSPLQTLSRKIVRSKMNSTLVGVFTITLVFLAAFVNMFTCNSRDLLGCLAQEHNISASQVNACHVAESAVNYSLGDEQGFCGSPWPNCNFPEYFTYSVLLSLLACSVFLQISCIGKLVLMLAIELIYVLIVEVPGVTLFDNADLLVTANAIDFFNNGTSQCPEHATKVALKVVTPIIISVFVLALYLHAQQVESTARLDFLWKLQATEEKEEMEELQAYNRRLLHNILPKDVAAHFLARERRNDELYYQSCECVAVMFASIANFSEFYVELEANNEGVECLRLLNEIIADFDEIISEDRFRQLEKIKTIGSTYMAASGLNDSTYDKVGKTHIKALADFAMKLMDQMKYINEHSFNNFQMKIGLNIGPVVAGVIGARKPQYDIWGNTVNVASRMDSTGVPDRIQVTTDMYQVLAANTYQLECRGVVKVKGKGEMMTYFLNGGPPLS
T5 sequence (O60266 whole entry): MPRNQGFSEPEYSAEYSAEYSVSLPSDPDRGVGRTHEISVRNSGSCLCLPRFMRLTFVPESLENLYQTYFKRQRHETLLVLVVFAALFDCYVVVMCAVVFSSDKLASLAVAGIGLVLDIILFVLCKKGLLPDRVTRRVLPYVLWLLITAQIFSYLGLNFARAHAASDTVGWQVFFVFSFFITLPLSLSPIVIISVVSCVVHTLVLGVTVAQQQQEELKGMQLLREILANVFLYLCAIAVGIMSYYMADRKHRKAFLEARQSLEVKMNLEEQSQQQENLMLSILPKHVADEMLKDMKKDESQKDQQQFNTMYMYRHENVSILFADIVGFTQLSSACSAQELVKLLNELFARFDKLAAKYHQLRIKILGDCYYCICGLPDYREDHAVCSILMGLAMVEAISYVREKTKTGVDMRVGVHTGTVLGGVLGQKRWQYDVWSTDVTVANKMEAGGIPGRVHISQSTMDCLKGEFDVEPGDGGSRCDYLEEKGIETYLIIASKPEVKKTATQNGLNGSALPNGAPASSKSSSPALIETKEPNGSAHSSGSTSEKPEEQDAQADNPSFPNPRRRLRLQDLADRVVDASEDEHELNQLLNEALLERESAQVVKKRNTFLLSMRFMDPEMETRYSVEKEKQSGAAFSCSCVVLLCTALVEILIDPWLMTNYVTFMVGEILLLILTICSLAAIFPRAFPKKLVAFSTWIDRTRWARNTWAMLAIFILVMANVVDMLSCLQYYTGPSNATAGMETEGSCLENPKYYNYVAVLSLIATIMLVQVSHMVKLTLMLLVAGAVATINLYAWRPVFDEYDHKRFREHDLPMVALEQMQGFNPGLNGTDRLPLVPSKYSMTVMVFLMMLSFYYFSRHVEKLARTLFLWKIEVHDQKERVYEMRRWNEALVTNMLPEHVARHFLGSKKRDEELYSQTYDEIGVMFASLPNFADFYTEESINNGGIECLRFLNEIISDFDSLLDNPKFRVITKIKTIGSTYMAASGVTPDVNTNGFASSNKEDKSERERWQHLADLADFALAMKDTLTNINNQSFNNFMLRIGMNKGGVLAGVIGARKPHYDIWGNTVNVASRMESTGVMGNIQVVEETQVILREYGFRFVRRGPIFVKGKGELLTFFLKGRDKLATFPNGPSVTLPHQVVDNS
T5 sequence (P63092 whole entry Q227L partner): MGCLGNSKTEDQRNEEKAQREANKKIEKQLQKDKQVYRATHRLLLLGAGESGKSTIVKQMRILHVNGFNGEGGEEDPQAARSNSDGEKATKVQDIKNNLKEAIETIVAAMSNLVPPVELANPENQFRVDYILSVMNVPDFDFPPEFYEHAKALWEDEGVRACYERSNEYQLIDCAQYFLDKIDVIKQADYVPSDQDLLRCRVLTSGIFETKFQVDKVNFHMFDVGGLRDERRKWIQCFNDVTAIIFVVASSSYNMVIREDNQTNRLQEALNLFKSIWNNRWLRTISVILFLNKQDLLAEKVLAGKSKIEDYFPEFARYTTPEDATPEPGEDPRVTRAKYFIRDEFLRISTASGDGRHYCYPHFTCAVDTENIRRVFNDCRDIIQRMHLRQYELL
T6 sequence (P40145 whole entry): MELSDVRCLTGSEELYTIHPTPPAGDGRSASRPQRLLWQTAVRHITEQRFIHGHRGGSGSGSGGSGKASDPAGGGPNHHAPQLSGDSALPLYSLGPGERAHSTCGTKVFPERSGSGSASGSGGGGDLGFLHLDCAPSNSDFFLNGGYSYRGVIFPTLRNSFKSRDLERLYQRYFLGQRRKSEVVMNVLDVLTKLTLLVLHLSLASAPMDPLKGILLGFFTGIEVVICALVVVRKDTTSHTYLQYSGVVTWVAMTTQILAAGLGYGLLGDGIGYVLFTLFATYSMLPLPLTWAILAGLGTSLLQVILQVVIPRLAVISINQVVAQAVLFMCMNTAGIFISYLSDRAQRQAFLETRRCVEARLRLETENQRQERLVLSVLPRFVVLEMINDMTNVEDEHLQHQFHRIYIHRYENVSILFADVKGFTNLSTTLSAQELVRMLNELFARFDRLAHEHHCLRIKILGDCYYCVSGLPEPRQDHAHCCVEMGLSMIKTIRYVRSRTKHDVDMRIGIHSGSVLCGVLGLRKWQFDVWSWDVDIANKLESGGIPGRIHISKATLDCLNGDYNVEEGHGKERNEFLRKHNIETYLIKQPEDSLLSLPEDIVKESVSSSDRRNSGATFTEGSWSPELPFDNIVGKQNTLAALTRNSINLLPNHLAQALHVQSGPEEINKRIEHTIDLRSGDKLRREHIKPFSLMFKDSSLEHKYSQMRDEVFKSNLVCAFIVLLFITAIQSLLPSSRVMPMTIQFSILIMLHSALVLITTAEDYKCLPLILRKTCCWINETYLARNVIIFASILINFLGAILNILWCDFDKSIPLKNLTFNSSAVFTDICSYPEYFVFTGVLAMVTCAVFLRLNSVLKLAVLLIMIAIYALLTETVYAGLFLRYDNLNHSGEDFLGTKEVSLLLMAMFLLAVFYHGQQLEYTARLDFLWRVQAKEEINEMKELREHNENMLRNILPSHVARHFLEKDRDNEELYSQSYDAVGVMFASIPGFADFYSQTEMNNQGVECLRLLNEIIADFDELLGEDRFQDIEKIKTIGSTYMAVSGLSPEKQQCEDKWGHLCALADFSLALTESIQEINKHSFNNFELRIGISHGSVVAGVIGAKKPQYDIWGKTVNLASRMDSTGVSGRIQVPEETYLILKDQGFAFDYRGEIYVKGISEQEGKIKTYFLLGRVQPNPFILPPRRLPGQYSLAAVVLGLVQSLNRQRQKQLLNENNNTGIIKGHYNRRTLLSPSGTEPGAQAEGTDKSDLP

CCCCCCCC/C=C\CCCCCCCC(=O)O [Oleic acid, Oleic ((9Z)-octadecenoic) acid]
mAC5 activity [%] (100% = 300nM Gsα stimulation) (mAC5; 20µM fatty acid concentration): 93% and 117% and 135% and 138% | Effect of lipid on Gsα-stimulated mAC5 (mAC5; 20 µM, in words): not enhanced; also recorded: unaffected | mAC activity [%] (100% = 300nM Gsα stimulation); 20µM Oleic acid concentration, mAC5 (mAC5; [1]): 135% and 138% and 161% and 84% and 105% and 93% and 117% | activity, mAC5 + 20µM Oleic acid (mAC5; Gsα 30 nM): 0.080 cAMP nmol/mg/min | activity, mAC5 + 20µM Oleic acid (mAC5; Gsα 60 nM): 0.233 cAMP nmol/mg/min and 0.334 cAMP nmol/mg/min | activity, mAC5 + 20µM Oleic acid (mAC5; Gsα 100 nM): 0.353 cAMP nmol/mg/min and 0.362 cAMP nmol/mg/min | activity, mAC5 + 20µM Oleic acid (mAC5; Gsα 300 nM): 0.752 cAMP nmol/mg/min and 1.165 cAMP nmol/mg/min | activity, mAC5 + 20µM Oleic acid (mAC5; Gsα 450 nM): 1.160 cAMP nmol/mg/min and 1.405 cAMP nmol/mg/min | activity, mAC5 + 20µM Oleic acid (mAC5; Gsα 600 nM): 1.213 cAMP nmol/mg/min and 1.684 cAMP nmol/mg/min | activity, mAC5 + 20µM Oleic acid (mAC5; Gsα 800 nM): 1.245 cAMP nmol/mg/min and 1.702 cAMP nmol/mg/min | activity, mAC5 + 20µM Oleic acid (mAC5; Gsα 1000 nM): 1.415 cAMP nmol/mg/min and 1.818 cAMP nmol/mg/min | mAC5 activity [%] (100% = 300nM Gsα stimulation) (mAC5; fatty acid 1 µM, individual experiments): 126% and 196% and 115% and 78% and 64% | mAC5 activity [%] (100% = 300nM Gsα stimulation) (mAC5; fatty acid 3 µM, individual experiments): 142% and 91% and 87% | mAC5 activity [%] (100% = 300nM Gsα stimulation) (mAC5; fatty acid 6 µM, individual experiments): 146% and 127% and 77% and 90% | mAC5 activity [%] (100% = 300nM Gsα stimulation) (mAC5; fatty acid 10 µM, individual experiments): 126% and 140% and 134% and 93% | mAC5 activity [%] (100% = 300nM Gsα stimulation) (mAC5; fatty acid 20 µM, individual experiments): 93% and 117% and 135% and 138% | activity [%] (100% = 300nM Gsα stimulation) (mAC5; mAC5, 20µM Oleic acid concentration, Figure 9 C): 161% and 84% and 93% and 117% and 135% and 138% | Effect of lipid on 300 nM Gsα-stimulated mAC1 (mAC1): slightly attenuated | Effect of lipid on 300 nM Gsα-stimulated mAC2 (mAC2; 20 µM, in words): significantly enhanced | mAC2 activity [%] (100% = 300nM Gsα stimulation); 20µM fatty acid concentration (mAC2; Figure 5-figure supplement 1 left, 20 µM): 252% and 212% and 173% and 181% and 196% and 228% and 168% | mAC2 activity [%] (100% = 300nM Gsα stimulation) (mAC2; oleic acid 0.3 µM): 100% | mAC2 activity [%] (100% = 300nM Gsα stimulation) (mAC2; oleic acid 1 µM): 98% and 100% and 117% and 87% | mAC2 activity [%] (100% = 300nM Gsα stimulation) (mAC2; oleic acid 3 µM): 82% and 99% and 116% and 107% | mAC2 activity [%] (100% = 300nM Gsα stimulation) (mAC2; oleic acid 6 µM): 120% and 95% and 119% and 162% and 110% and 87% | mAC2 activity [%] (100% = 300nM Gsα stimulation) (mAC2; oleic acid 10 µM): 157% and 167% and 142% and 171% and 162% and 123% | mAC2 activity [%] (100% = 300nM Gsα stimulation) (mAC2; oleic acid 20 µM): 196% and 228% and 168% and 252% and 212% and 173% and 181% | EC50 (mAC2; [2]): 8.6 µM | mAC6 activity [%] (100% = 300nM Gsα stimulation) (mAC6; 20µM fatty acid concentration): 92% and 80% and 133% | Effect of lipid on 300 nM Gsα-stimulated mAC6 (mAC6; 20 µM, in words): unaffected | mAC activity [%] (100% = 300nM Gsα stimulation); 20µM Oleic acid concentration, mAC6 (mAC6; [1]): 92% and 80% and 133% | time over which the action on mAC3 was linear (mAC3; 300 nM Gsα + 20 µM oleic acid, 37°C): > 25 min | enhancement of cAMP formation, mAC3 (mAC3; 20 µM oleic, over the Gsα concentration range tested): about 3.4 fold | Effect of lipid on 300 nM Gsα-stimulated mAC3 (mAC3; 20 µM, in words): threefold | activity, mAC3 + 20µM Oleic acid (mAC3; Gsα 100 nM): 0.209 cAMP nmol/mg/min and 0.110 cAMP nmol/mg/min and 0.112 cAMP nmol/mg/min | activity, mAC3 + 20µM Oleic acid (mAC3; Gsα 300 nM): 0.432 cAMP nmol/mg/min and 0.605 cAMP nmol/mg/min and 0.596 cAMP nmol/mg/min | activity, mAC3 + 20µM Oleic acid (mAC3; Gsα 450 nM): 0.779 cAMP nmol/mg/min and 1.182 cAMP nmol/mg/min and 0.727 cAMP nmol/mg/min | activity, mAC3 + 20µM Oleic acid (mAC3; Gsα 600 nM): 0.825 cAMP nmol/mg/min and 1.078 cAMP nmol/mg/min and 1.302 cAMP nmol/mg/min | activity, mAC3 + 20µM Oleic acid (mAC3; Gsα 800 nM): 1.075 cAMP nmol/mg/min and 1.164 cAMP nmol/mg/min and 1.303 cAMP nmol/mg/min | activity, mAC3 + 20µM Oleic acid (mAC3; Gsα 1000 nM): 1.029 cAMP nmol/mg/min and 1.444 cAMP nmol/mg/min and 1.731 cAMP nmol/mg/min | ATP/V (mAC3 + 20µM Oleic acid) (mAC3; ATP 50 µM): 208.8 | ATP/V (mAC3 + 20µM Oleic acid) (mAC3; ATP 75 µM): 204.9 | ATP/V (mAC3 + 20µM Oleic acid) (mAC3; ATP 250 µM): 392.9 | ATP/V (mAC3 + 20µM Oleic acid) (mAC3; ATP 500 µM): 636.9 | ATP/V (mAC3 + 20µM Oleic acid) (mAC3; ATP 750 µM): 814.6 | ATP/V (mAC3 + 20µM Oleic acid) (mAC3; ATP 1000 µM): 941.6 | mAC3 activity + 20µM Oleic acid (mAC3; ATP 50 µM): 0.232 nmol cAMP/mg/min and 0.247 nmol cAMP/mg/min | mAC3 activity + 20µM Oleic acid (mAC3; ATP 75 µM): 0.434 nmol cAMP/mg/min and 0.298 nmol cAMP/mg/min | mAC3 activity + 20µM Oleic acid (mAC3; ATP 250 µM): 0.713 nmol cAMP/mg/min and 0.609 nmol cAMP/mg/min and 0.587 nmol cAMP/mg/min | mAC3 activity + 20µM Oleic acid (mAC3; ATP 500 µM): 0.786 nmol cAMP/mg/min and 0.782 nmol cAMP/mg/min and 0.787 nmol cAMP/mg/min | mAC3 activity + 20µM Oleic acid (mAC3; ATP 750 µM): 0.817 nmol cAMP/mg/min and 0.753 nmol cAMP/mg/min and 1.192 nmol cAMP/mg/min | mAC3 activity + 20µM Oleic acid (mAC3; ATP 1000 µM): 0.944 nmol cAMP/mg/min and 1.156 nmol cAMP/mg/min and 1.086 nmol cAMP/mg/min | EC50 (mAC3; [2]): 10.4 µM | mAC3 activity [%] (100% = 300nM Gsα stimulation) (mAC3; fatty acid 0.5 µM): 100% | mAC3 activity [%] (100% = 300nM Gsα stimulation) (mAC3; fatty acid 1 µM): 112% and 105% and 91% and 64% and 97% and 107% and 78% and 95% and 111% and 139% and 103% and 106% and 87% | mAC3 activity [%] (100% = 300nM Gsα stimulation) (mAC3; fatty acid 3 µM): 98% and 158% and 97% and 183% and 141% and 160% and 142% and 105% and 145% and 150% | mAC3 activity [%] (100% = 300nM Gsα stimulation) (mAC3; fatty acid 6 µM): 117% and 105% and 165% and 187% and 143% and 169% (2×) and 166% and 97% | mAC3 activity [%] (100% = 300nM Gsα stimulation) (mAC3; fatty acid 10 µM): 271% and 106% and 156% and 151% and 142% and 280% and 178% and 252% and 181% and 191% and 139% and 175% and 284% and 260% and 266% and 166% | mAC3 activity [%] (100% = 300nM Gsα stimulation) (mAC3; fatty acid 20 µM): 341% and 348% and 429% and 323% and 430% and 264% and 322% and 395% and 181% and 452% and 464% and 265% (2×) | mAC3 activity [%] (100% = 300nM Gsα stimulation) (mAC3; fatty acid 20 µM, listed as Oleic): 298% and 532% and 253% and 428% and 297% | mAC3 activity; stimulated by 300nM Gsα + 20µM Oleic acid (mAC3; time 3 min, 37°C): 2.601 cAMP nmol/mg and 2.019 cAMP nmol/mg | mAC3 activity; stimulated by 300nM Gsα + 20µM Oleic acid (mAC3; time 6 min, 37°C): 2.734 cAMP nmol/mg and 2.75 cAMP nmol/mg | mAC3 activity; stimulated by 300nM Gsα + 20µM Oleic acid (mAC3; time 10 min, 37°C): 3.46 cAMP nmol/mg | mAC3 activity; stimulated by 300nM Gsα + 20µM Oleic acid (mAC3; time 15 min, 37°C): 4.543 cAMP nmol/mg and 5.759 cAMP nmol/mg | mAC3 activity; stimulated by 300nM Gsα + 20µM Oleic acid (mAC3; time 20 min, 37°C): 6.22 cAMP nmol/mg and 8.564 cAMP nmol/mg | mAC3 activity; stimulated by 300nM Gsα + 20µM Oleic acid (mAC3; time 25 min, 37°C): 9.573 cAMP nmol/mg and 11.033 cAMP nmol/mg | Vmax, mAC3 (mAC3; with 20 µM oleic acid): 1.23 nmol cAMP•mg^−1•min^−1 | mAC8 activity [%] (100% = 300nM Gsα stimulation) (mAC8; 20µM fatty acid concentration): 134% and 139% | Effect of lipid on 300 nM Gsα-stimulated mAC8 (mAC8; 20 µM, in words): unaffected | mAC activity [%] (100% = 300nM Gsα stimulation); 20µM Oleic acid concentration, mAC8 (mAC8; [1]): 134% and 139%
